Legend:
Type in all cases: in vivo, human
[1] = test system: adult subjects with TRD; assay: Phase 2b trial in TRD: Generalised Anxiety Disorder-7 item scale (GAD-7); conditions: 25 mg vs 1 mg group, week 3
Procedure: (§1) Other objectives were to evaluate the effects of psilocybin on quality of life and wellbeing, functioning and associated disability, cognitive function, and anxiety compared to 1 mg psilocybin on: • (a) Quality of life in subject EuroQoL (EQ)-5 dimension-3 level scale (EQ-5D-3L) score change from Baseline to week 3. This will also be assessed at week 12. This assessment was not mandatory. • (b) Quality of life in caregiver EQ-5D-3L score change from Baseline to week 3. This was assessed at week 12. • (c) Functioning and associated disability in the Sheehan Disability Scale (SDS) score change from Baseline to week 3. This was also assessed at week 12. • (d) Cognitive function as measured by the Digit Symbol Substitution Test (DSST) score change from baseline to week 3. This was assessed at day 1 and week 12. • (e) Level of anxiety as measured using the change in Generalised Anxiety Disorder 7 item Scale (GAD-7) total score change from baseline to week 3. This was assessed at week 12. • (f) Subject determined level of depression as measured using the change in Quick Inventory of Depressive Symptomatology Self-Rated (QIDS-SR-16) total score from Baseline to week 3. […] This was assessed at week 12. • (h) To evaluate the impact of different psilocybin doses on real life functional activity estimated from passive data streams collected on a mobile app on subjects' mobile phones. […]

[2] = test system: adult subjects with TRD; assay: Phase 2b trial in TRD: Work and Social Adjustment Scale (WSAS); conditions: 25 mg vs 1 mg, week 3
Procedure: as §1

[3] = test system: adult subjects with TRD; assay: Phase 2b trial in TRD: Sheehan Disability Scale (SDS); conditions: 25 mg vs 1 mg, week 3
Procedure: as §1

[4] = test system: adult subjects with TRD; assay: Phase 2b trial in TRD: Positive and Negative Affect Schedule (PANAS); conditions: 25 mg vs 1 mg group, week 3
Procedure: as §1

`CN(C)CCc1c[nH]c2cccc(OP(=O)(O)O)c12` [COMP360, psilocybin] was tested, and the “GAD-7 total score, least squares mean (95% confidence intervals) treatment difference” value [1] was −1.79 (−3.35, −0.23), the WSAS treatment difference [2] was −5.11 and the SDS treatment difference [3] was −6.49. For the same compound, the “PANAS negative affect, least squares mean (95% confidence intervals) treatment difference” value [4] was −3.18 (−5.59, −0.77) and the “PANAS positive affect, least squares mean (95% confidence intervals) treatment difference” value [4] was 6.17 (3.53, 8.82).
